Measured values: BigSolDB 2.1

FC(F)(F)c1cccnc1Cl
solubility (mole fraction)
Settings | 273.15 K | 278.15 K | 283.15 K | 288.15 K | 293.15 K | 298.15 K | 303.15 K
in dichloromethane | 0.281 | 0.365 | 0.41 | 0.469 | 0.551 | 0.625 | 0.741
in ethanol | 0.137 | 0.182 | 0.253 | 0.355 | 0.475 | 0.635 | 0.875
in n-heptane | 0.037 | 0.0552 | 0.0887 | 0.14 | 0.222 | 0.36 | 0.556
in n-hexane | 0.046 | 0.0733 | 0.118 | 0.199 | 0.336 | 0.488 | 0.762
in n-propanol | 0.0727 | 0.0992 | 0.132 | 0.183 | 0.253 | 0.355 | 0.492
in toluene | 0.35 | 0.413 | 0.491 | 0.569 | 0.653 | 0.724 | 0.862
